Measured values from publication PMC10987480, “Biological and mutational analyses of CXCR4–antagonist interactions and design of new antagonistic analogs” (Bioscience Reports, 2023).

Columns and labels:
CXCR4 D193A = target: T1, CXCR4 D193A (Homo sapiens, UniProt P61073, D193A); assay: Competitive binding to CXCR4 mutant D193A (12G5, CHO cells); conditions: TM4, class of reduction vs wild-type CXCR4, 12G5 competition, averages of at least three independent experiments
T1 construct: expressed in transfected cells
T1 sequence (P61073 whole entry D193A): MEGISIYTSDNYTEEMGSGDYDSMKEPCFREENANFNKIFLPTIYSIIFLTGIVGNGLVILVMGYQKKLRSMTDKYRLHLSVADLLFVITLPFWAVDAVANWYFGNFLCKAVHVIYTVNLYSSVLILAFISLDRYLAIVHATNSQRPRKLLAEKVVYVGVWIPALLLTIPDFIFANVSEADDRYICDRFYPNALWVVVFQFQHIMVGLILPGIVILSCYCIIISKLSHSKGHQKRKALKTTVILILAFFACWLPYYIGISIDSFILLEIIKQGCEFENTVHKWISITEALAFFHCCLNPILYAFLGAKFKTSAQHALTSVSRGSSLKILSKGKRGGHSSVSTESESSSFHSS
Protocol: (§1) Plasmid pcDNA3-CXCR4 and mutated pcDNA3-CXCR4 were extracted and transfected into CHO cells using Lipofectamine 2000 according to the manufacturer’s guidelines. The selective medium containing G418 at a concentration of 1.2 mg/ml was applied to isolate stably transfected cells. CHO cells expressing wild-type CXCR4 and mutant CXCR4 were obtained using fluorescence-activated cell sorting (FACS).
(§2) All of the CXCR4 mutants were prepared using PCR technology. Briefly, pairs of asymmetrical primers containing the desired amino acid mutations (Supplementary Tables S1 and S2), each complementary to opposite strands of the pcDNA3–CXCR4, were designed for amplification by Q5® High-Fidelity DNA polymerase and the generation of mutated constructs. The methylated pcDNA3–CXCR4 templates were digested by DpnI. The mutated pcDNA3–CXCR4 was transformed into competent E. coli TOP10 for long-term storage and amplification.
(§3) The procedure for the CXCR4 competitive binding experiments was published previously. Briefly, CXCR4 antibody 12G5 (250 ng/ml) was incubated with 5 × 10^5 cells and varying concentrations of unlabeled compounds in a final volume of 100 μl of assay buffer (PBS with 0.5% BSA and 0.05% NaN3) in 96-well plates for 40 min on ice, after being washed with assay buffer once. The cells were incubated with FITC-conjugated second antibody IgG for 30 min on ice, then washed with assay buffer three times. The fluorescence intensity was measured for excitation at 485 nm and emission at 535 nm using multimode plate reader (PerkinElmer). The IC50 values were calculated using graphpad Prism 7. Experiments were performed at least three times.

CXCR4 Y256A = target: T2, CXCR4 Y256A (Homo sapiens, UniProt P61073, Y256A); assay: Competitive binding to CXCR4 mutant Y256A (12G5, CHO cells); conditions: TM6, class of reduction vs wild-type CXCR4, 12G5 competition, averages of at least three independent experiments
T2 construct: expressed in transfected cells
T2 sequence (P61073 whole entry Y256A): as the sequence (P61073 whole entry D193A) above, with A193D, Y256A counted along it
Protocol: as §1, §2, §3

CXCR4 [1] = target: T3, CXCR4 (Homo sapiens, UniProt P61073); assay: SDF-1α-induced cell migration assay in SupT1 cells (transwell); type: cell-based; set-up: host or cells: SupT1 cells; conditions: at 50 nM, 2 nM SDF-1α, 30 min pre-incubation, 3 h migration
T3 sequence (P61073 whole entry): as the sequence (P61073 whole entry D193A) above, with A193D counted along it
Protocol: Figure 2 The inhibitory effect of the antagonists on SDF-1α-induced cell chemotaxis and calcium mobilization in SupT1 cells The antagonists and concentrations used were labeled in each lane. (A) The inhibition of cell migration by the noted antagonists. SupT1 cells pre-treated with or without CXCR4 antagonists were seeded in the upper well and cell migrated by 2 nM SDF-1α. Migrated cells without SDF-1α were used as a negative (0%) and migrated cell induced by SDF-1α as a positive control (100%). […] SupT1 cells were treated with or without CXCR4 antagonists and activated by 50 nM SDF-1α. To directly compare the inhibitory effect of the antagonists on calcium mobilization, the vehicle background and baseline were removed using GraphPad and Origin. The data were averages of at least three independent experiments.
SupT1 cells (2 × 10^6 cells per well in 75 μl) were collected and washed using assay buffer (RPMI 1640 supplemented with 0.5% BSA) and incubated with various concentrations of tested compounds for 30 min in the upper well of the transwell-96 well plates with 5.0 µm pore polycarbonate membrane insert (Corning, U.S.A.). Then, 200 μl assay buffer containing 2 nM SDF-1α was added to the lower well and cells were allowed to migrate for 3 h. Migrated cells were measured using celltiter-96 reagent.

CXCR4 D97A = target: T4, CXCR4 D97A (Homo sapiens, UniProt P61073, D97A); assay: Competitive binding to CXCR4 mutant D97A (12G5, CHO cells); conditions: TM2, class of reduction vs wild-type CXCR4, 12G5 competition, averages of at least three independent experiments
T4 construct: expressed in transfected cells
T4 sequence (P61073 whole entry D97A): as the sequence (P61073 whole entry D193A) above, with D97A, A193D counted along it
Protocol: as §1, §2, §3

CXCR4 H281A = target: T5, CXCR4 H281A (Homo sapiens, UniProt P61073, H281A); assay: Competitive binding to CXCR4 mutant H281A (12G5, CHO cells); conditions: TM7, class of reduction vs wild-type CXCR4, 12G5 competition, averages of at least three independent experiments
T5 construct: expressed in transfected cells
T5 sequence (P61073 whole entry H281A): as the sequence (P61073 whole entry D193A) above, with A193D, H281A counted along it
Protocol: as §1, §2, §3

CXCR4 Y255A = target: T6, CXCR4 Y255A (Homo sapiens, UniProt P61073, Y255A); assay: Competitive binding to CXCR4 mutant Y255A (12G5, CHO cells); conditions: TM6, class of reduction vs wild-type CXCR4, 12G5 competition, averages of at least three independent experiments
T6 construct: expressed in transfected cells
T6 sequence (P61073 whole entry Y255A): as the sequence (P61073 whole entry D193A) above, with A193D, Y255A counted along it
Protocol: as §1, §2, §3

CXCR4 W195A = target: T7, CXCR4 W195A (Homo sapiens, UniProt P61073, W195A); assay: Competitive binding to CXCR4 mutant W195A (12G5, CHO cells); conditions: TM4, class of reduction vs wild-type CXCR4, 12G5 competition, averages of at least three independent experiments
T7 construct: expressed in transfected cells
T7 sequence (P61073 whole entry W195A): as the sequence (P61073 whole entry D193A) above, with A193D, W195A counted along it
Protocol: as §1, §2, §3

CXCR4 W252A = target: T8, CXCR4 W252A (Homo sapiens, UniProt P61073, W252A); assay: Competitive binding to CXCR4 mutant W252A (12G5, CHO cells); conditions: TM6, class of reduction vs wild-type CXCR4, 12G5 competition, averages of at least three independent experiments
T8 construct: expressed in transfected cells
T8 sequence (P61073 whole entry W252A): as the sequence (P61073 whole entry D193A) above, with A193D, W252A counted along it
Protocol: as §1, §2, §3

CXCR4 [2] = target: T3, CXCR4; assay: Competitive CXCR4 binding assay (12G5 antibody probe), wild-type CXCR4 transfected CHO cells; set-up: expressed in transfected cells; Competitive receptor binding activity, wild-type CXCR4 (WT): key to the marks not given beside the values; conditions: class relative to wild-type; 12G5 competition, stably transfected CHO cells; averages of at least three independent experiments
Protocol: The CXCR4-specific antibody, 12G5 was used as a probe for the competitive CXCR4 binding assay to evaluate the binding activity of CXCR4 antagonists.
Figure 1 Competitive CXCR4 binding curves of eleven CXCR4 antagonists The CXCR4 transfected CHO cells were incubated with different concentrations of antagonists and 250 ng/ml 12G5 antibody. The CXCR4-binding 12G5 antibody was recognized by FITC-conjugated anti-IgG second antibody. The cells treated with only second antibody were used as a negative control (0%) while cells treated with both 12G5 antibody and second antibody were used as a positive control (100%). Cells treated with CXCR4 antagonists were calculated in percentage relative to the positive and negative controls. The data were averages of at least three independent experiments and shown as mean ± standard error of the mean (S.E.M.).
as §3

CXCR4 D262E = target: T9, CXCR4 D262E (Homo sapiens, UniProt P61073, D262E); assay: Competitive binding to CXCR4 mutant D262E (12G5, CHO cells); conditions: TM6, class of reduction vs wild-type CXCR4, 12G5 competition, averages of at least three independent experiments
T9 construct: expressed in transfected cells
T9 sequence (P61073 whole entry D262E): as the sequence (P61073 whole entry D193A) above, with A193D, D262E counted along it
Protocol: as §1, §2, §3

CXCR4 H203A = target: T10, CXCR4 H203A (Homo sapiens, UniProt P61073, H203A); assay: Competitive binding to CXCR4 mutant H203A (12G5, CHO cells); conditions: TM5, class of reduction vs wild-type CXCR4, 12G5 competition, averages of at least three independent experiments
T10 construct: expressed in transfected cells
T10 sequence (P61073 whole entry H203A): as the sequence (P61073 whole entry D193A) above, with A193D, H203A counted along it
Protocol: as §1, §2, §3

Q: For “LGASWHRPDKCCLGYQKRPLPQVLLSSWYPTSQLCSKPGVIFLTKRGRQVCADKSKDWVKKLMQQLPVTAR [vMIP-II, viral macrophage-inflammatory protein-II, full-length natural chemokine antagonist produced by human herpesvirus-8; recombinant from Peprotech]”, which “Competitive receptor binding activity, CXCR4 D193A” value (CXCR4 D193A) is on record?
A: ++ (10–29% reduction compared with wild-type CXCR4)

Q: What about the “Competitive receptor binding activity, CXCR4 Y256A” value (CXCR4 Y256A) of the same sequence?
A: +++

Q: And the “Inhibition of cell migration” value (CXCR4 [1])?
A: 64%

Q: And the “Competitive receptor binding activity, CXCR4 D97A” value (CXCR4 D97A)?
A: ++ (10–29% reduction compared with wild-type CXCR4)

Q: What about the “Competitive receptor binding activity, CXCR4 H281A” value (CXCR4 H281A) of the same sequence?
A: +++

Q: What about the “Competitive receptor binding activity, CXCR4 Y255A” value (CXCR4 Y255A) of the same sequence?
A: +++

Q: What about the “Competitive receptor binding activity, CXCR4 W195A” value (CXCR4 W195A) of the same sequence?
A: ++ (10–29% reduction compared with wild-type CXCR4)

Q: What about the “Competitive receptor binding activity, CXCR4 W252A” value (CXCR4 W252A) of the same sequence?
A: +++

Q: What about the “Competitive receptor binding activity, wild-type CXCR4 (WT)” value (CXCR4 [2]) of the same sequence?
A: +++

Q: And the “Competitive receptor binding activity, CXCR4 D262E” value (CXCR4 D262E)?
A: ++ (10–29% reduction compared with wild-type CXCR4)

Q: What about the “Competitive receptor binding activity, CXCR4 H203A” value (CXCR4 H203A) of the same sequence?
A: +++
